Paper PMC10958880, “Pocket Crafter: a 3D generative modeling based workflow for the rapid generation of hit molecules in drug discovery” (Journal of Cheminformatics, 2024)
Each block holds one compound with its values, some of them ahead of it.

How the values were obtained:
Type in all cases: binding
[1] = molecular target: T1, WDR5 (Homo sapiens, UniProt P61964); assay: DSF (Tm shift -1.[…] °C) plus WDR5-MYC peptide HTRF displacement with counter assay; set-up: full-length WDR5 (DSF); N-His, 1–334 (HTRF)
[2] = molecular target: T1, WDR5; assay: DSF (Tm shift -4.[…] °C) plus WDR5-MYC peptide HTRF displacement with counter assay; set-up: full-length WDR5 (DSF); N-His, 1–334 (HTRF)
[3] = molecular target: T1, WDR5; assay: WDR5-MYC peptide HTRF dose response, inactive in counter assay; set-up: N-His, 1–334; with MYC MbIIIb peptide (256–268 a.a.)

IC50 [1]: 27.5 µM
Structure (SMILES): C[C@H]1Cc2noc(N3CCCCC3=O)c2CN1C(=O)c1cc2ccccc2[nH]1 [PC-2]

IC50 [2]: 35.6 µM
Structure (SMILES): O=C(c1cc2ccccc2[nH]1)N1CCn2ncc(N3C[C@@H](CO)OC3=O)c2C1 [PC-1]

IC50 [3]: 28.5 µM
Structure (SMILES): CC1(C)CN(c2cnn3c2CN(C(=O)c2cc4c([nH]2)CCCC4)CC3)C(=O)O1 [PC-3]
